Laboratory results: US20250034161A1, “SPIROCYCLIC COMPOUND AS KRAS-G12C INHIBITOR” (Shanghai Euregen Biopharma Co., Ltd., priority 2020, published 2025)

Assays:
[1] = Whole blood stability assay, dog whole blood; type: in vitro ADME; details: 37° C.
Procedure: (§1) • 1. Test purpose: to determine the whole blood stability of the compounds by monitoring the clearance rate of the parent compound after incubation of some of the example compounds of the invention with dog and rat whole blood. • 2. […] Test method:
(§2) Then, the stock solution of the test compound was diluted to 1 mmol/L and 0.2 mmol/L with 70% acetonitrile aqueous solution, respectively, as working solution.
(§3) The working solution was added to the whole blood. The concentration of each test compound was 5 μmol/L. 90 μL was taken and then mixed evenly with 90 μL of water. Then 600 μL of acetonitrile termination solution containing propranolol as internal standard was added. Incubated at 37° C. in a water bath and shook gently. At 30, 60, 120 and 240 minutes, 90 μL of each mixture was placed on a clean 96-well plate prefilled with 90 μL of water, mixed well, and then 600 μL of acetonitrile termination solution containing propranolol as internal standard was added and centrifuged at 5000 g for 15 min. 80 μL of the supernatant was taken and placed in a 96-well plate preloaded with 160 μL of ultrapure water, then analyzed by LC-MS/MS.

CYP 3A4 = CYP 3A4 (Homo sapiens, UniProt P08684); test: CYP inhibition test, human liver microsomes, CYP3A4; details: IC50(μM)
Procedure: (§4) • 1. Test purpose: to evaluate the inhibitory ability of some of the example compounds of the present invention against CYP1A2, 2B6, 2C8, 2C9, 2C19, 2D6 and 3A4 via human liver microsomes. • 2. […] Test method:
(§5) • 1. K/Mg buffer: the components were 0.1 mol/L potassium phosphate and 5 mmol/L magnesium chloride with pH 7.4±0.1, preheated. • 2. Solution of the test compound: the test compound was dissolved in dimethyl sulfoxide to prepare a stock solution of 10 mmol/L. 8 μL of 10 mmol/L stock solution was transferred to a 96-well plate containing 12 μL of acetonitrile as the highest concentration point, at 3-fold dilution, for 8 concentrations. • 3. […] Human liver microsomal stock solution: human liver microsomes were dissolved in 0.1 mol/L K/Mg buffer to obtain 20 mg/mL stock solution. • 5. Human liver microsomal working solution: 10 μL of 20 mg/mL human liver microsomal stock solution was taken and added into 990 μL of 0.1 mol/L K/Mg buffer to prepare 0.2 mg/mL human liver microsomal solution. • 6.
600 μL of 0.2 mg/mL human liver microsomal solution and 3 μL of stepwise diluted test compound solution were added to the 96-well plate. 30 μL of the above solution was added on the 96-well plate followed by the addition of 15 μL of the corresponding substrate solution. The 96-well plate and the NADPH solution were pre-incubated at 37° C. for 5 minutes, and 15 μL of NADPH solution was added to the 96-well plate to start the reaction. The assay plate was incubated at 37° C. for 5 minutes for 3A4, 10 minutes for 1A2, 2B6 and 2C9, 20 minutes for 2C8 and 2D6, and 45 minutes for 2C19. Then the reaction was terminated by 180 μL of acetonitrile containing internal standard substance. After quenching, the plate was shook for 10 minutes (600 rpm/min) and then centrifuged at 6000 rpm for 15 minutes. 80 μL of supernatant was taken from each well and transferred to a 96-well sample plate containing 120 μL of ultrapure water for LC-MS/MS analysis.

[2] = Plasma protein binding assay (equilibrium dialysis), mouse plasma; type: in vitro ADME; details: pH 7.4, Mice plasma, equilibrium dialysis 5 hours, read-out: Plasma protein binding rate (%) (converted)
Procedure: (§6) • 1. Test purpose: to evaluate the protein binding rate of the test compound in human, dog, monkey, rat and mouse plasma by equilibrium dialysis; • 2. […] Experimental methods: • 0.1 mol/L sodium phosphate and 0.15 mol/L sodium chloride buffer with pH 7.4±0.1 was preheated;
(§7) Preparation of plasma containing test substance: the test compound was dissolved in DMSO to prepare a 10 mmol/l stock solution. 5 μL of stock solution was taken and diluted with 95 μL of acetonitrile to obtain solution A (0.5 mmol/L). 8 μL of solution A was taken and diluted with 192 μL of 0.1 mol/L sodium phosphate buffer to obtain solution B (0.02 mmol/L). 570 μL of plasma was added into a 96-well plate followed by the addition of 30 μL of solution B. The final concentration was 1 μmol/L with 0.01% DMSO.
(§8) The plate was shook at 600 rpm for 10 minutes, covered and stored in a freezer (−20° C.).
(§9) T5 sample preparation (in triplicate): the dialysis device was added with 100 μL of buffer on its receiver side and 100 μL of plasma containing the test compound on its doner side. And the dialysis device was then shook at 37° C. and 120 rpm for 5 hours. At the end of culture, 25 μL of plasma containing the test substance was taken from the plasma side and then added to a 96-well plate, followed by the addition of 25 μL of buffer and 200 μL of acetonitrile solution containing internal standard. […]

[3] = Plasma protein binding assay (equilibrium dialysis), monkey plasma; type: in vitro ADME; details: pH 7.4, equilibrium dialysis 5 hours, read-out: Plasma protein binding rate (%) (converted)
Procedure: as §6, §7, §8, §9

[4] = Plasma protein binding assay (equilibrium dialysis), dog plasma; type: in vitro ADME; details: pH 7.4, equilibrium dialysis 5 hours, read-out: Plasma protein binding rate (%) (converted)
Procedure: as §6, §7, §8, §9

CYP 2B6 = biological target: T1, CYP 2B6 (Homo sapiens, UniProt P20813); test: CYP inhibition test, human liver microsomes, CYP2B6
T1 sequence (P20813 1-491): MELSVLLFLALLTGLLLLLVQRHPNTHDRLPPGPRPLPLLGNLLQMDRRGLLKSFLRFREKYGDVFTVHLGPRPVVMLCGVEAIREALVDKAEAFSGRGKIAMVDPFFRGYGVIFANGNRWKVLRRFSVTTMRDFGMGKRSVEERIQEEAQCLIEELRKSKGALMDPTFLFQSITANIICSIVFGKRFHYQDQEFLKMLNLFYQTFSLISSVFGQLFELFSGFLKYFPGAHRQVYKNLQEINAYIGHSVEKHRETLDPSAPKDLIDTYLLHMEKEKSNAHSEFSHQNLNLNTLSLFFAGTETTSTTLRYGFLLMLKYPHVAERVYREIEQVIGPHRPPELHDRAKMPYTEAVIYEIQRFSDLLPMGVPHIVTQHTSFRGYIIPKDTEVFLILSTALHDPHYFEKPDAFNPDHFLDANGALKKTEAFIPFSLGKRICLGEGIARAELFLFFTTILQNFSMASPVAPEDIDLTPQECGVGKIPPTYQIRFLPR
Procedure: as §4, §5
600 μL of 0.2 mg/mL human liver microsomal solution and 3 μL of stepwise diluted test compound solution were added to the 96-well plate. 30 μL of the above solution was added on the 96-well plate followed by the addition of 15 μL of the corresponding substrate solution. […]

[5] = Whole blood stability assay, rat whole blood; type: in vitro ADME; details: 37° C.
Procedure: as §1, §2, §3

[6] = CYP 3 A4-M, substrate midazolam
[7] = CYP 3 A4-T, substrate testosterone

Sequence of CYP 3A4 (P08684 whole entry): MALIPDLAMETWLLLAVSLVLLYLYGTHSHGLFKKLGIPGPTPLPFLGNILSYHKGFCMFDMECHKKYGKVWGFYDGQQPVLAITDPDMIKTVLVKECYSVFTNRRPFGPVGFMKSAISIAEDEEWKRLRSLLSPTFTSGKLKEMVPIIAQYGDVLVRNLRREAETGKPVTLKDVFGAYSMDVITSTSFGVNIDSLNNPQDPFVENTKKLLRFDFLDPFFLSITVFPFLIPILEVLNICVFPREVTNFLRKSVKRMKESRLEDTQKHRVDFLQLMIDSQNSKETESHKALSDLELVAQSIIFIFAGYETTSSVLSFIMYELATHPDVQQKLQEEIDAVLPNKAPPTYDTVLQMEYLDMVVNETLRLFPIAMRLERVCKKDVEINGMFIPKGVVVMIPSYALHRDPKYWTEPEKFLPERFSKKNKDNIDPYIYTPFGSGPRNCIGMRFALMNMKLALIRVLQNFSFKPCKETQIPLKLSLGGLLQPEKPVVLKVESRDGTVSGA

SMILES	half-life at 5 μmol/L [1] [h]	IC50 (CYP 3A4; [6]) [µM]	IC50 (CYP 3A4; [7]) [µM]	fraction unbound at 5 h, 1 μmol/L [2]	fraction unbound at 5 h, 1 μmol/L [3]	fraction unbound at 5 h, 1 μmol/L [4]	IC50 (CYP 2B6) [µM]	half-life at 5 μmol/L [5] [h]
C=CC(=O)N1CCN(c2nc(=O)n(-c3c(C)ccnc3C(C)C)c3nc(-c4c(O)cccc4F)c(F)cc23)[C@@H](C)C1 [AMG510]	1.46	5.07	> 10	0.091	0.017	0.079	> 10	1.85
C=C(F)C(=O)N1CCN(c2nc(OC[C@@H]3CCCN3C)nc3c2CCN(c2cccc4cccc(Cl)c24)C3)C[C@@H]1CC#N [MRTX849]	6.15	6.83	> 10	0.004	0.013	0.012	3.93	13.1
